Active and inactive are the calls of the source.
What was measured:
[1] = Luminescence Cell-Based Dose Response HTS to Identify Inhibitors of 5'UTR Stem-Loop Driven Prion Protein mRNA Translation in H4 Neuroglioblastoma Cells. [Related pubchem assays: 1827 (Project Summary), 1813 (Primary HTS)]; format: functional
[2] = inhibitors of clade B AD8 Env fusion, dose response, cell-based, cherry-pick (AID 652062); format: functional;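 further: luciferase signal from cell-cell fusion driven by HIV-1 clade B AD8 Env; potency is for inhibitors of fusion seen as a drop in luminescence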
[3] = inhibitors of SNCA 5'UTR-driven reporter translation, confirmation, H4 neuroglioma cells, luminescence (AID 1988); format: functional, cell-based
BJ [4] = test: cytotoxicity toward Ras-transformed BJeLR fibroblasts, dose response, cell-based, alamar blue fluorescence, cherrypicked samples (AID 2631); format: functional; conditions: Homo sapiens;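 further: confirmatory dose-response assay in RAS-dependent BJ fibroblasts engineered with TERT, LT and ST, with cytotoxicity read by fluorescence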
Paired box protein Pax-8 = Paired box protein Pax-8 (Homo sapiens, UniProt Q06710); test: inhibitors of PAX8-driven TPO luciferase reporter, dose response, RMG-I cells, cherry-pick (AID 687027); format: functional, cell-based;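 further: luciferase reporter driven by Pax8 target thyroperoxidase promoter measured by SteadyGlo luminescence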
[5] = inhibitors of firefly luciferase expression or activity, dose response, H4 neuroglioma cells, luminescence (AID 1990); format: functional, cell-based
[6] = inhibitors of HIV Env-driven cell fusion, dose response, cherry-pick (AID 652057); format: functional, cell-based
Aminopeptidase N = molecular target: T1, Aminopeptidase N (Plasmodium falciparum FcB1/Columbia, UniProt O96935); test: P. falciparum M1AAP inhibitors, biochemical, fluorogenic H-Leu-NHMec substrate, 1536-well (AID 1445); design: species or system Plasmodium falciparum 3D7, 3D7
T1 sequence (O96935 whole entry): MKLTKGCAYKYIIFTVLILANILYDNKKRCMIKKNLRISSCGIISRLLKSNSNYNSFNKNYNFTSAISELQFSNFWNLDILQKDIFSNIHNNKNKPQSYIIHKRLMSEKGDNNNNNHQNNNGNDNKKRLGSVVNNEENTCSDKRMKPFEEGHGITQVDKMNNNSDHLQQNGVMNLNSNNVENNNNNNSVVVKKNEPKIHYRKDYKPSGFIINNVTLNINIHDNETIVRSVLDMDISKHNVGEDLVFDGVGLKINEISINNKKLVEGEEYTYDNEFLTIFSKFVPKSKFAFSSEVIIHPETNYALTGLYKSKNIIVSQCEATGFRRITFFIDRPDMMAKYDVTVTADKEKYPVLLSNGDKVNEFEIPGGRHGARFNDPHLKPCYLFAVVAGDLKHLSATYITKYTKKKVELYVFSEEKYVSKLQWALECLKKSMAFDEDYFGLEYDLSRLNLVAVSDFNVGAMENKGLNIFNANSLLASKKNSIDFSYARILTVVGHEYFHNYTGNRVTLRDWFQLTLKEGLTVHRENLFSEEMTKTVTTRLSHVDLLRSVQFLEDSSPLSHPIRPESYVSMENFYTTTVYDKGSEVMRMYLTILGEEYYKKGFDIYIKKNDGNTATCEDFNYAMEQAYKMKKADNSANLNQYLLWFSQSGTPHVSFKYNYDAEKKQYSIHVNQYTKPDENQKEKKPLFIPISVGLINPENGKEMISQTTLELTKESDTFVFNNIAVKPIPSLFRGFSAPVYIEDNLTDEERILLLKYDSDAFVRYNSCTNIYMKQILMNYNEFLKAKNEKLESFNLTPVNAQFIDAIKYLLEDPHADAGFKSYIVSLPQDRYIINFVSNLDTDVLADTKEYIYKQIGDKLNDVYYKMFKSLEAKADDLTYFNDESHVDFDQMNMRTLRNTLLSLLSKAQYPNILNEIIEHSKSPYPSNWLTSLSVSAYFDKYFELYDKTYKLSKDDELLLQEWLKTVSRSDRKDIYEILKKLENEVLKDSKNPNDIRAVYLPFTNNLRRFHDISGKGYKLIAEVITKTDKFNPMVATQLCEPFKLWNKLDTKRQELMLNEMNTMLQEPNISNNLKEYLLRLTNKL

[7] = molecular target: T2, Neuropeptide Y receptor type 1 (Homo sapiens, UniProt P25929); test: Fluorescence-based counterscreen for agonists of NPY-Y2: cell-based high-throughput dose response assay for agonists of NPY-Y1.; format: functional
T2 sequence (P25929 whole entry): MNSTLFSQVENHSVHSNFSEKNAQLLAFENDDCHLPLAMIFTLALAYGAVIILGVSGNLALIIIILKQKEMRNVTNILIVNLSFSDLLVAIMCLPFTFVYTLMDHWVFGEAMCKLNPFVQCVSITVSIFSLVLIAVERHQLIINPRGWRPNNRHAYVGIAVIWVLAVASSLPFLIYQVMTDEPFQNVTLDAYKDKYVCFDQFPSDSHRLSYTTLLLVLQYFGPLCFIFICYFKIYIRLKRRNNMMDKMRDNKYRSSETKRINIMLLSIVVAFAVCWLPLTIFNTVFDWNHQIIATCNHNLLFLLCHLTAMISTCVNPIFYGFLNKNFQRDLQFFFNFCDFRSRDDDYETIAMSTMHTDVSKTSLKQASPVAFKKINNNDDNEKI

[8] = off-target signal loss in HeLa-CEM21 co-culture – HeLa F-luc CTL cells, cherry-picked, counter-screen for HIV-1 Env fusion inhibitor project, dose response (AID 652040); format: functional, cell-based;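 further: potency for signal decrease marking cytotoxic or nonspecific inhibition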
HEK293 [9] = test: Fluorescence-based counterscreen for potentiators or agonists of NPY-Y2: cell-based high-throughput dose response assay to identify inhibitors of cyclic nucleotide gated ion channel (CNGC) activity. In this assay, the parental HEK293 cell line transfected with a cyclic-nucleotide gated ion channel (CNGC)-based cAMP sensor is used to measure inhibition of isoproterenol-induced CNGC activity by test compound.; format: functional; conditions: Homo sapiens
[10] = ZM109 Env clade C HIV-1 fusion inhibitors, dose response, HeLa effector, CEM target cells, luciferase, cherry-pick (AID 652058); format: functional, cell-based
[11] = HIV-1 Env-mediated cell fusion inhibitors, dose response, CCR5-tropic Env (AID 2279); format: functional
INS1 = test: beta cell apoptosis inhibitors, cytokine rescue, dose response, luminescence, retest (AID 449756); format: functional, cell-based; conditions: Rattus norvegicus;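 further: cell death triggered by IL-1 beta plus TNF-alpha plus IFN-gamma mixture; protective hits raise ATP signal compared with cytokine alone wells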
[12] = CEM21 lymphoblast cell cytotoxicity, dose response, cytotoxicity control for viral fusion inhibitor project, CellTiter-Glo luminescence, cherry-picked (AID 652042); format: functional, cell-based;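 further: potency for signal decrease meaning cytotoxicity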
[13] = molecular target: T3, Neuropeptide Y receptor type 2 (Homo sapiens, UniProt P49146); test: Fluorescence-based cell-based high-throughput dose response assay for agonists of NPY-Y2. [Related pubchem assays: 1703 (Screening assay (CNGC inhibitors).), 1359 (Screening assay (NPY-Y2 potentiators or agonists).), 1304 (Screening assay (NPY-Y1 potentiators or agonists).), 1710 (Screening assay (NPY-Y2 agonists).), 1791 (Summary AID.)]; format: functional
T3 sequence (P49146 whole entry): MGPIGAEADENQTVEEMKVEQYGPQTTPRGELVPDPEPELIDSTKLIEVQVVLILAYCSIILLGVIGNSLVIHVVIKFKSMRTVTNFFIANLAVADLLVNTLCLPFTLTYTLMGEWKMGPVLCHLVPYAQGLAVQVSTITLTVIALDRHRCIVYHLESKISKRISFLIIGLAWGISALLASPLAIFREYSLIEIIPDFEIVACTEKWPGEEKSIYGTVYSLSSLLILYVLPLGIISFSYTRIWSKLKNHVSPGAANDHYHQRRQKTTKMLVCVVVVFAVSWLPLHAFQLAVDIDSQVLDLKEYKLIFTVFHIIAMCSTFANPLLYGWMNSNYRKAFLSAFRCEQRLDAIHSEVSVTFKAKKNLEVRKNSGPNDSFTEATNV

CAAX prenyl protease 2 = CAAX prenyl protease 2 (Homo sapiens, UniProt Q9Y256); test: human Rce1 protease inhibitors, dose response, biochemical, yeast membranes, quenched-peptide fluorescence, cherry-pick (AID 588849)
[14] = DNA binding of candidate compounds, dose response, artefact control for RAD54 inhibitor project, biochemical, fluorescence polarization, cherry-pick (AID 651673); format: functional
[15] = insulin promoter down-regulators in MIN6 cells, imaging, high-content screening, mouse beta cells (AID 1628); format: functional
HT-1080 = test: cytotoxicity in HT1080 fibrosarcoma cells, cell-based, fluorescence readout (AID 620); format: functional; conditions: Homo sapiens
[16] = molecular target: Luciferin 4-monooxygenase (Photinus pyralis, UniProt P08659); test: Counter Screen for Luciferase-based Assay Positives. [Related pubchem assays: 620, 618, 411 ]
[17] = molecular target: T4, DNA repair and recombination protein RAD54-like (Homo sapiens, UniProt Q92698); test: inhibitors of human RAD54 branch migration, confirmation, biochemical, fluorescence, cherry-picked samples, dose series (AID 651657); format: functional
T4 sequence (Q92698 whole entry): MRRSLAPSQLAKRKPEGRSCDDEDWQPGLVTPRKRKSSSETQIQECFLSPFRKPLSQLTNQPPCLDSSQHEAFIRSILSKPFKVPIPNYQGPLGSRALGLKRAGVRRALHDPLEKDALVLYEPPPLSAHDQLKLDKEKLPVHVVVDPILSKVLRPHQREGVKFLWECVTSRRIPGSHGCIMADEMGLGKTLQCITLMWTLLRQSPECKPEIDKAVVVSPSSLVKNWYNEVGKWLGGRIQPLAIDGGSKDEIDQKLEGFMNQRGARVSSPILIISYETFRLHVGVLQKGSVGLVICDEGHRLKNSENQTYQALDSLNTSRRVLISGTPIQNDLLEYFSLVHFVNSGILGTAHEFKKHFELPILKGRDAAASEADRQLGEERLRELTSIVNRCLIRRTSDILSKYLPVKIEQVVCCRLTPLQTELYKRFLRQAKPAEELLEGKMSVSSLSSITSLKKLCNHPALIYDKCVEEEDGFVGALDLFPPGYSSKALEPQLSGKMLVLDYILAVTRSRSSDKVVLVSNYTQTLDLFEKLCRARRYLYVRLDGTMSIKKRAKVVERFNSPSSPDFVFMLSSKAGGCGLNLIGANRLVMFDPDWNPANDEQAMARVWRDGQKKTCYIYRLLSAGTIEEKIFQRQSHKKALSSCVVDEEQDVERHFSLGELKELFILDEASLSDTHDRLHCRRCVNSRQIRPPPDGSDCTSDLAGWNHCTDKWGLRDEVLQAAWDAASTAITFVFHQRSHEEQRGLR

HEK293 [18] = test: cells; conditions: Homo sapiens
[19] = cytotoxicity in MIN6 insulinoma cells, dose response, cytotoxicity control, cell-based, mouse insulinoma (AID 2122); format: functional;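 further: confirmatory high-throughput counterscreen run to flag cytotoxic compounds; mouse MIN-6 beta cells carrying an insulin promoter eGFP reporter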
HEK293 [20] = test: cells; conditions: Homo sapiens; remark: listed apart in the source
A-375 = test: A375 melanoma cell viability reduction, dose response, counter-screen for MITF modulator project, cherry-pick samples, set 2 (AID 540335); format: functional, cell-based; conditions: Homo sapiens
[21] = cytotoxicity toward DRD oncogenic fibroblasts, dose response, cell-based, non-viral oncogenic, luminescence (AID 1934); format: functional; conditions: Homo sapiens
BJ [22] = test: cytotoxicity toward BJ-TERT fibroblasts, dose response, cell-based, RAS-independent, luminescence (AID 1933); format: functional; conditions: Homo sapiens
BJ [23] = test: cells; format: functional, cell-based; conditions: Homo sapiens
BJ [24] = test: cytotoxicity toward BJ-TERT-LT-ST fibroblasts, dose response, cell-based, RAS-independent, luminescence (AID 1935); format: functional; conditions: Homo sapiens;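 further: BJ fibroblasts immortalized with TERT plus LT and ST oncogenes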
[25] = molecular target: T5, Microphthalmia-associated transcription factor (Homo sapiens, UniProt O75030); test: TRPM1 promoter luciferase signal decrease, dose response, MITF inhibitor project, cell-based, SK-MEL-5, cherry-picked, set 3 (AID 493073); format: functional
T5 sequence (O75030 whole entry): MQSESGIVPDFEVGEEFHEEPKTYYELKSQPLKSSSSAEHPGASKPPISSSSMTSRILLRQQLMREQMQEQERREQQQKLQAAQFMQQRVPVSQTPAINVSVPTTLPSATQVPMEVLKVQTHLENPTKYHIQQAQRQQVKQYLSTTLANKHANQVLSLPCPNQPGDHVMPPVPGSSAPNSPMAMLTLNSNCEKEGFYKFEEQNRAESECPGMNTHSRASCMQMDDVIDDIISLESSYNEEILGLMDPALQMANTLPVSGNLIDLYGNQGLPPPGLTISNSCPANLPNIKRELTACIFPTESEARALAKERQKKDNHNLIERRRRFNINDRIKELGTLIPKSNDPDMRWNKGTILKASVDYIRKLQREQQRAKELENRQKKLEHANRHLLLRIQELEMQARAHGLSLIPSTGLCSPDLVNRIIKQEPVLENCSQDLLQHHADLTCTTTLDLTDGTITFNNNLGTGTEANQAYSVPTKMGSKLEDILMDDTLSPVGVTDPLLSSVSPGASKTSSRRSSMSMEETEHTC

Chain of CAAX prenyl protease 2 (Q9Y256 whole entry): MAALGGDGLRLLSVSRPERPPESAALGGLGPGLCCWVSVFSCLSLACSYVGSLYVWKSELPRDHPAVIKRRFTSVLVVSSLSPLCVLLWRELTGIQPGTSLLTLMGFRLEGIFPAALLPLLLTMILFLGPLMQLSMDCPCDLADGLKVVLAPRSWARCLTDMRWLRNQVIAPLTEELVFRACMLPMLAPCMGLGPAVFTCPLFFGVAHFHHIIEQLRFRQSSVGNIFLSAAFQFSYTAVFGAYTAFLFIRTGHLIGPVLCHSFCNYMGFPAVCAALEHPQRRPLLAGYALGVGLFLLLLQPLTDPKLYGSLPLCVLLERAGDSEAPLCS
Chain of Paired box protein Pax-8 (Q06710 whole entry): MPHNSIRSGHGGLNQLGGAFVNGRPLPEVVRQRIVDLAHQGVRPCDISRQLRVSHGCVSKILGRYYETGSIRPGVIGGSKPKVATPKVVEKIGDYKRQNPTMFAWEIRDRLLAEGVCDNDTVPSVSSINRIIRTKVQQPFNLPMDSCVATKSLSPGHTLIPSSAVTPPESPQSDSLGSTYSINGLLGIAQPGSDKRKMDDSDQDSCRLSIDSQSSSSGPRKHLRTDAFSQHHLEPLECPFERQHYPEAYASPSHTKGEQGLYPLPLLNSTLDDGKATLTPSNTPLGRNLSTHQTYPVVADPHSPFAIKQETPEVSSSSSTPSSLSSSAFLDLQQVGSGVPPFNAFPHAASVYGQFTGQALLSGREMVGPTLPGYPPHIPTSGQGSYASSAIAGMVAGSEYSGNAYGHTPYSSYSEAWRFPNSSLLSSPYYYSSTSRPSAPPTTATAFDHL
Chain of Luciferin 4-monooxygenase (P08659 whole entry): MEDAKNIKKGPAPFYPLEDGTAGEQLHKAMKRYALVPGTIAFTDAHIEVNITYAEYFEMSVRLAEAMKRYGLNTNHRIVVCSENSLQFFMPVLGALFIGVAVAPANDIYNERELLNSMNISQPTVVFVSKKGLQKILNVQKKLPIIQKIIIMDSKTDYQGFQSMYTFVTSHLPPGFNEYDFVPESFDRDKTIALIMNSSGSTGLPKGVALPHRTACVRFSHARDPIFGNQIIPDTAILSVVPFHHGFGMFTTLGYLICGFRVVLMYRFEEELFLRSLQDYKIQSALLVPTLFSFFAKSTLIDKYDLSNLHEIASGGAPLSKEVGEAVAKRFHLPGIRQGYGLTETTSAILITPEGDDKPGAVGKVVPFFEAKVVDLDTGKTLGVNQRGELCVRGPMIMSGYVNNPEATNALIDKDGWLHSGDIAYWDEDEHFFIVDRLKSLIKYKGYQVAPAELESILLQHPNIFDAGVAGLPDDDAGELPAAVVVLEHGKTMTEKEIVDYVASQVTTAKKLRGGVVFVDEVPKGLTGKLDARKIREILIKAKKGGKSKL

O=C(Nc1cc(S(=O)(=O)N2CCCCC2)ccc1Cl)c1ccccc1NS(=O)(=O)c1ccc(F)cc1
> 60 µM (not active): EC50 [1]
inactive: EC50 (BJ [4]) > 133 µM
active: AC50 [2] 10.8 µM | EC50 [3] 13.7 µM | AC50 (Paired box protein Pax-8) 5.08 µM | EC50 [5] 13.8 µM | AC50 [6] 28.4 µM | IC50 (Aminopeptidase N) 44.9 µM | AC50 [8] 6.21 µM | EC50 (HEK293 [9]) 4.53 µM | AC50 [10] 25.6 µM | IC50 [11] 2 µM | AC50 (INS1) 3.42 µM | AC50 [12] 32.9 µM | AC50 (CAAX prenyl protease 2) 20.7 µM
25.6 µM (not active): EC50 [13]
12.7 µM (not active): EC50 [7]

Nc1cccc2nc3ccccc3cc12
inactive: EC50 (HEK293 [20]) > 59.7 µM
> 120 µM (not active): EC50 [3]
active: EC50 [1] 7.26 µM | AC50 [14] 54 µM | IC50 [15] 3.72 µM | EC50 (HT-1080) 22.8 µM | EC50 [16] 0.95 µM | AC50 [17] 4.75 µM | EC50 (HEK293 [18]) > 6.63 µM | IC50 [19] 4.9 µM | AC50 (CAAX prenyl protease 2) 5.07 µM

Cc1cc(-n2c(SCC(=O)NCCC3=CCCCC3)nc3nnc(C)c-3c2N)ccc1Cl
inconclusive: EC50 (BJ [24]) > 150 µM
inactive: EC50 (BJ [4]) > 133 µM
active: AC50 (A-375) 37.6 µM | EC50 [21] 14 µM | EC50 (BJ [22]) 6.61 µM | AC50 (Paired box protein Pax-8) 7.33 µM | AC50 [25] 17.1 µM
> 150 µM (not active): EC50 (BJ [23])
